The values that follow come from patent publication US7320972B2, “4-Biarylyl-1-phenylazetidin-2-ones” (Microbia, Inc., priority 2003, dated 2008).

Data set [1] relates to cholesterol absorption (serum 3H-cholesterol). Briefly: In Vivo Assay of Hypolipidemic Agents using the Rat Cholesterol Absorption Model. Details: species or system Sprague-Dawley rats. Particulars: peroral; for % inhibition at 10 mg/kg: 10 mg/kg (footnote 1); for inhibition in vivo at 1 mg/kg: po; for inhibition in vivo at 1 mg/kg / % inhibition at 1 mg/kg: serum 3H-cholesterol 3 h after cholesterol dose, vs vehicle control. The gist of the method:
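Female Sprague-Dawley rats (150–250 g, 4–6 per group) were fasted overnight and dosed orally with compound in olive oil or vehicle. Thirty minutes later they received 3–5 μCi 3H-cholesterol orally in olive oil, and serum radioactivity was measured at 3 h. % inhibition = 100×(1−Ctest/Cctrl) at a fixed dose; ED50 is the dose giving half-maximal effect.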

[2] abbreviates: serum 3H-cholesterol vs vehicle control.

As for `O=C1[C@H](CC[C@H](O)c2ccc(F)cc2)[C@@H](c2ccc(-c3ccc(O)cc3)cc2)N1c1ccc(F)cc1` [Example 2, (3R,4S)-1-(4-fluorophenyl)-3-[(3S)-3-(4-fluorophenyl)-3-hydroxypropyl]-4-(4′-hydroxybiphenyl-4-yl)azetidin-2-one], the melting point turned out to be 110 °C. In addition, the “% inhibition at 10 mg/kg” value in data set [1] (setting [2]) is recorded as 54^1%.

In turn, `O=C1[C@H](CC[C@H](O)c2ccc(F)cc2)[C@@H](c2ccc(-c3cccc(O)c3)cc2)N1c1ccc(F)cc1` [Example 4, (3R,4S)-1-(4-Fluorophenyl)-3-[(3S)-3-(4-fluorophenyl)-3-hydroxypropyl]-4-(3′-hydroxybiphenyl-4-yl)azetidin-2-one] showed a melting point of 107 °C. This molecule gave an inhibition in vivo at 1 mg/kg in data set [1] of 72%.

`COc1ccc(-c2ccc([C@@H]3[C@@H](CC[C@H](O)c4ccc(F)cc4)C(=O)N3c3ccc(F)cc3)cc2)cc1` [Example 5, (3R,4S)-1-(4-fluorophenyl)-3-[(3S)-3-(4-fluorophenyl)-3-hydroxypropyl]-4-(4′-methoxybiphenyl-4-yl)azetidin-2-one]: the melting point was found to be 103 °C. Further, in data set [1] (setting [2]), the “% inhibition at 10 mg/kg” value was 26^1%.

For the molecule `O=C1[C@H](CC[C@H](O)c2ccc(F)cc2)[C@@H](c2ccc(O)c(-c3ccccc3)c2)N1c1ccc(F)cc1` [Example 6, (3R,4S)-1-(4-fluorophenyl)-3-[(3S)-3-(4-fluorophenyl)-3-hydroxypropyl]-4-(6-hydroxybiphenyl-3-yl)azetidin-2-one], the melting point amounted to 113 °C.

`O=C1[C@H](CC[C@H](O)c2ccc(F)cc2)[C@@H](c2ccc(-c3ccccc3O)cc2)N1c1ccc(F)cc1` [Example 7, (3R,4S)-1-(4-fluorophenyl)-3-[(3S)-3-(4-fluorophenyl)-3-hydroxypropyl]-4-(2′-hydroxybiphenyl-4-yl)azetidin-2-one] returned a melting point of 101 °C. In data set [1], this molecule came in with an inhibition in vivo at 1 mg/kg of 30%.

`CS(=O)(=O)c1ccc(-c2ccc([C@@H]3[C@@H](CC[C@H](O)c4ccc(F)cc4)C(=O)N3c3ccc(F)cc3)cc2)cc1` [Example 8, (3R,4S)-1-(4-fluorophenyl)-3-[(3S)-3-(4-fluorophenyl)-3-hydroxypropyl]-4-[4′-(methylsulfonyl)biphenyl-4-yl]azetidin-2-one] had a melting point of 111 °C. The same molecule showed an inhibition in vivo at 1 mg/kg in data set [1] of 53%.

On to `COc1cc(-c2ccc([C@@H]3[C@@H](CC[C@H](O)c4ccc(F)cc4)C(=O)N3c3ccc(F)cc3)cc2)cc(OC)c1OC` [Example 9, (3R,4S)-1-(4-fluorophenyl)-3-[(3S)-3-(4-fluorophenyl)-3-hydroxypropyl]-4-(3′,4′,5′-trimethoxybiphenyl-4-yl)azetidin-2-one], for which the melting point was 103 °C. The molecule also yielded an inhibition in vivo at 1 mg/kg in data set [1] of 40%.

Regarding `CS(=O)(=O)c1cccc(-c2ccc([C@@H]3[C@@H](CC[C@H](O)c4ccc(F)cc4)C(=O)N3c3ccc(F)cc3)cc2)c1` [Example 10, (3R,4S)-1-(4-fluorophenyl)-3-[(3S)-3-(4-fluorophenyl)-3-hydroxypropyl]-4-[3′-(methylsulfonyl)biphenyl-4-yl]azetidin-2-one], the melting point was 104 °C. Further, the “% inhibition at 3 mg/kg” value in data set [1] (3 mg/kg (footnote 2), serum 3H-cholesterol vs vehicle control) is 54^2%.

Regarding `COc1cccc(-c2ccc([C@@H]3[C@@H](CC[C@H](O)c4ccc(F)cc4)C(=O)N3c3ccc(F)cc3)cc2)c1OC` [Example 11, (3R,4S)-4-(2′,3′-dimethoxybiphenyl-4-yl)-1-(4-fluorophenyl)-3-[(3S)-3-(4-fluorophenyl)-3-hydroxypropyl]azetidin-2-one], the melting point was determined as 101 °C. In data set [1], this molecule yielded an inhibition in vivo at 1 mg/kg of 28%.

For `O=C1[C@H](CC[C@H](O)c2ccc(F)cc2)[C@@H](c2ccc(-c3cc(O)cc(F)c3)cc2)N1c1ccc(F)cc1` [Example 112, (3R,4S)-4-(3′-fluoro-5′-hydroxybiphenyl-4-yl)-1-(4-fluorophenyl)-3-[(3S)-3-(4-fluorophenyl)-3-hydroxypropyl]azetidin-2-one], in data set [1], the inhibition in vivo at 1 mg/kg came to 75%.

Consider `O=C1[C@H](CC[C@H](O)c2ccc(F)cc2)[C@@H](c2ccc(-c3cccc([C@@H]4O[C@@H](CO)[C@H](O)[C@@H](O)[C@@H]4O)c3)cc2)N1c1ccc(F)cc1` [Example 113, (1S)-1,5-anhydro-1-(4′-{(2S,3R)-1-(4-fluorophenyl)-3-[(3S)-3-(4-fluorophenyl)-3-hydroxypropyl]-4-oxoazetidin-2-yl}biphenyl-3-yl)-L-glucitol], for which the inhibition in vivo at 1 mg/kg in data set [1] worked out at 67%.

The molecule `O=C1[C@H](CC[C@H](O)c2ccc(F)cc2)[C@@H](c2ccc(-c3cc(O)cc(O)c3)cc2)N1c1ccc(F)cc1` [Example 114, (3R,4S)-4-(3′,5′-dihydroxybiphenyl-4-yl)-1-(4-fluorophenyl)-3-[(3S)-3-(4-fluorophenyl)-3-hydroxypropyl]azetidin-2-one] showed an inhibition in vivo at 1 mg/kg in data set [1] of 72%.

`O=C1[C@H](CC[C@H](O)c2ccc(F)cc2)[C@@H](c2ccc(-c3cccc(B(O)O)c3)cc2)N1c1ccc(F)cc1` [Example 115, (4′-{(2S,3R)-1-(4-fluorophenyl)-3-[(3S)-3-(4-fluorophenyl)-3-hydroxypropyl]-4-oxoazetidin-2-yl}biphenyl-3-yl)boronic Acid] returned an inhibition in vivo at 1 mg/kg in data set [1] of 70%.

`O=C1[C@H](CC[C@H](O)c2ccc(F)cc2)[C@@H](c2ccc(-c3ccc([C@H]4O[C@@H](CO)[C@H](O)[C@@H](O)[C@@H]4O)cc3)cc2)N1c1ccc(F)cc1` [Example 116, (1R)-1,5-anhydro-1-(4′-{(2S,3R)-1-(4-fluorophenyl)-3-[(3S)-3-(4-fluorophenyl)-3-hydroxypropyl]-4-oxoazetidin-2-yl}biphenyl-4-yl)-L-glucitol] displayed an inhibition in vivo at 1 mg/kg in data set [1] of 81%.

For the molecule `O=C1[C@H](CC[C@H](O)c2ccc(F)cc2)[C@@H](c2ccc(-c3cccc(C[C@@H]4O[C@H](CO)[C@@H](O)[C@H](O)[C@H]4O)c3)cc2)N1c1ccc(F)cc1` [Example 117], the “% inhibition at 1 mg/kg” value in data set [1] is given as 26%.

For `O=C1[C@H](CC[C@H](O)c2ccc(F)cc2)[C@@H](c2ccc(-c3cccc(S(=O)(=O)O)c3)cc2)N1c1ccc(F)cc1` [Example 118, 4′-{(2S,3R)-1-(4-fluorophenyl)-3-[(3S)-3-(4-fluorophenyl)-3-hydroxypropyl]-4-oxoazetidin-2-yl}biphenyl-3-sulfonic Acid], testing at 1 mg/kg in data set [1] gave an inhibition in vivo of 61%.

In turn, `O=C1[C@H](CC[C@H](O)c2ccc(F)cc2)[C@@H](c2ccc(-c3cccc(S)c3)cc2)N1c1ccc(F)cc1` [Example 119, (3R,4S)-1-(4-fluorophenyl)-3-[(3S)-3-(4-fluorophenyl)-3-hydroxypropyl]-4-(3′-mercaptobiphenyl-4-yl)azetidin-2-one] registered an inhibition in vivo at 1 mg/kg in data set [1] of 56%.

On to `C[N+](C)(C)c1cccc(-c2ccc([C@@H]3[C@@H](CC[C@H](O)c4ccc(F)cc4)C(=O)N3c3ccc(F)cc3)cc2)c1` [Example 120, 4′-{(2S,3R)-1-(4-fluorophenyl)-3-[(3S)-3-(4-fluorophenyl)-3-hydroxypropyl]-4-oxoazetidin-2-yl}-N,N,N-trimethylbiphenyl-3-aminium], for which the “% inhibition at 1 mg/kg” value in data set [1] came to 23%.

On to `O=C1[C@H](CC[C@H](O)c2ccc(F)cc2)[C@@H](c2ccc(-c3cccc(O)c3)cc2O)N1c1ccc(F)cc1` [Example 121, (3R,4S)-4-(3,3′-dihydroxybiphenyl-4-yl)-1-(4-fluorophenyl)-3-[(3S)-3-(4-fluorophenyl)-3-hydroxypropyl]azetidin-2-one], for which the inhibition in vivo at 1 mg/kg in data set [1] came to 72%.

As to `O=C1[C@H](CC[C@H](O)c2ccc(F)cc2)[C@@H](c2ccc(-c3cccc(P(=O)(O)O)c3)cc2)N1c1ccccc1` [Example 122, (4′-{(2S,3R)-3-[(3S)-3-(4-fluorophenyl)-3-hydroxypropyl]-4-oxo-1-phenylazetidin-2-yl}biphenyl-3-yl)phosphonic Acid], 1 mg/kg produced 67% inhibition in vivo in data set [1].

Turning to `CS(=O)(=O)c1cccc(-c2ccc([C@@H]3[C@@H](CC[C@H](O)c4ccc(F)cc4)C(=O)N3c3ccccc3)c(O)c2)c1` [Example 123, (3R,4S)-3-[(3S)-3-(4-fluorophenyl)-3-hydroxypropyl]-4-[3-hydroxy-3′-(methylsulfonyl)biphenyl-4-yl]-1-phenylazetidin-2-one], at 1 mg/kg the inhibition in vivo in data set [1] was 72%.

In turn, `O=C1[C@H](CC[C@H](O)c2ccc(F)cc2)[C@@H](c2ccc(-c3cccc(O)c3)cc2)N1c1ccc(-c2ccccc2)cc1` [Example 124, (3R,4S)-1-biphenyl-4-yl-3-[(3S)-3-(4-fluorophenyl)-3-hydroxypropyl]-4-(3′-hydroxybiphenyl-4-yl)azetidin-2-one] showed an inhibition in vivo at 1 mg/kg in data set [1] of 48%.

In data set [1], `O=C1[C@H](CC[C@H](O)c2ccc(F)cc2)[C@@H](c2ccc(-c3ccc(O)cc3)cc2O)N1c1ccccc1` [Example 125, (3R,4S)-4-(3,4′-dihydroxybiphenyl-4-yl)-3-[(3S)-3-(4-fluorophenyl)-3-hydroxypropyl]-1-phenylazetidin-2-one] had an inhibition in vivo at 1 mg/kg of 64%.

The molecule `O=C1[C@H](CC[C@H](O)c2ccc(F)cc2)[C@@H](c2ccc(-c3ccc(P(=O)(O)O)cc3)cc2O)N1c1ccccc1` [Example 127, (4′-{(2S,3R)-3-[(3S)-3-(4-Fluorophenyl)-3-hydroxypropyl]-4-oxo-1-phenylazetidin-2-yl}-3′-hydroxybiphenyl-4-yl)phosphonic Acid] returned an inhibition in vivo at 1 mg/kg in data set [1] of 58%.

`O=C1[C@H](CC[C@H](O)c2ccc(F)cc2)[C@@H](c2ccc(-c3ccc(S(=O)(=O)O)cc3)cc2O)N1c1ccccc1` [Example 128, Sodium 4′-{(2S,3R)-3-[(3S)-3-(4-fluorophenyl)-3-hydroxypropyl]-4-oxo-1-phenylazetidin-2-yl}-3′-hydroxybiphenyl-4-sulfonate]: the inhibition in vivo at 1 mg/kg in data set [1] came to 60%.

The % inhibition is the change of the read-out against control, counted positive when it falls. Low values mean little suppression, high ones strong suppression. Broadly, the melting point is the temperature of the solid-liquid transition. As usually defined, the inhibition in vivo is the drop in the measured response relative to a control, in per cent.
